Data on two molecules can be found in article PMC12503276, “A novel TRPV5/6-like channel from a scleractinian coral” (PLOS One, 2025).

In one assay the target is T1, PdTRPV5/6-like (Pocillopora damicornis, UniProt Z9K305B7A5).
T1 construct: full-length ORF, 724 residues, cloned from aquarium coral cDNA into pcDNA3.1, HEK293 transient expression; EGFP on separate plasmid; tetramer
T1 sequence (Z9K305B7A5 1-724): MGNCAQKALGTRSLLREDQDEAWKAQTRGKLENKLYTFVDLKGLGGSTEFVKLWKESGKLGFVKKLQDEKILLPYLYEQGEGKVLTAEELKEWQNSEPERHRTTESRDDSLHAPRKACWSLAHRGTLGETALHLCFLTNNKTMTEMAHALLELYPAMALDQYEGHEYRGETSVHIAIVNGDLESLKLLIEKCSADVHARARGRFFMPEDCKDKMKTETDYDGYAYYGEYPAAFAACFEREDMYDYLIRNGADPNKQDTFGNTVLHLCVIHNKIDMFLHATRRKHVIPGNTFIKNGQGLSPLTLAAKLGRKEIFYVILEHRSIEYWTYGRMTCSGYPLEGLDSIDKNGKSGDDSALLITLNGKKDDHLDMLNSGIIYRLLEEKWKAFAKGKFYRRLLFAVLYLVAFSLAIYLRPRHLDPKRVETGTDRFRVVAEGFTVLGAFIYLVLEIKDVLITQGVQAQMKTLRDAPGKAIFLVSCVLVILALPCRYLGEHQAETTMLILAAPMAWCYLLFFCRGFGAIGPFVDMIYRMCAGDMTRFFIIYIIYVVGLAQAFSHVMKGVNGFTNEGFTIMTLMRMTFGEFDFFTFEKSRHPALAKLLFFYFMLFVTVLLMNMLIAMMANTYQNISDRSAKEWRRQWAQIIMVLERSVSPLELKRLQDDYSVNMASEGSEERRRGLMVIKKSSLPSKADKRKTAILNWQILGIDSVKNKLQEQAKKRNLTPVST
As to the kind of experiment: outside-out patch clamp, HEK293. The class given is cell-based.

For a further assay, the target named is T2, hTRPV5 (Homo sapiens, UniProt Q9NQA5).
T2 construct: gene TRPV5; EGFP on separate plasmid; tetramer
As to the kind of experiment: outside-out patch clamp, HEK293. The class given is cell-based.

T2 sequence (Q9NQA5 whole entry): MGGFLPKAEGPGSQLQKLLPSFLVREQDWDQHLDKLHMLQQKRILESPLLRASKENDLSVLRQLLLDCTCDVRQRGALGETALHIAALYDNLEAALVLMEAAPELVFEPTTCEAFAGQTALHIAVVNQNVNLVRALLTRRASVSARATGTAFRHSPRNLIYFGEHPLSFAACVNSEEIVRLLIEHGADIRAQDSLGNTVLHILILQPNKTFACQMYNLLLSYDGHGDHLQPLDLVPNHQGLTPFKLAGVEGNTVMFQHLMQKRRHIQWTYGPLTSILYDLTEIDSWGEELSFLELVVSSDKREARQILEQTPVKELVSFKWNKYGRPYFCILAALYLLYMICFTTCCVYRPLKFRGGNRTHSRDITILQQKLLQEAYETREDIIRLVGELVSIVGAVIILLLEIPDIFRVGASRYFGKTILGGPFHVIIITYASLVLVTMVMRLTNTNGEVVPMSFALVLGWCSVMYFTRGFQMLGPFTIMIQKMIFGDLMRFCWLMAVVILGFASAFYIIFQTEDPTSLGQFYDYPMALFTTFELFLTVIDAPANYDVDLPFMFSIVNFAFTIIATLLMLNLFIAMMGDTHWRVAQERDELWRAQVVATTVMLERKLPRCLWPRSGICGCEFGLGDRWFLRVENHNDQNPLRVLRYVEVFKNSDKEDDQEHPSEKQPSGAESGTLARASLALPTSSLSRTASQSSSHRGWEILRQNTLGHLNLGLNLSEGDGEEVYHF

As to `CC(C)[C@@H]1CC[C@@H](C)C[C@H]1O` [(-)-menthol], half-maximal inhibition on PdTRPV5/6-like (IC50) was put at 120 µM. The molecule `Clc1ccc(COC(Cn2ccnc2)c2ccc(Cl)cc2Cl)c(Cl)c1` (centres unmarked) [miconazole] showed an IC50 against hTRPV5 of 0.0512 µM. In other words, the double-digit nanomolar range.
